Test results: US7288567B2, “Inhibitors of histone deacetylase” (Methylgene Inc., priority 2000, dated 2007)
Where a name gives a salt, the structure may show the parent alone. Read-outs that look alike come from different tables or passages of the source.

Target: T1, recombinant human HDAC-1 enzyme (rHDAC-1) (Homo sapiens, UniProt Q13547)
T1 construct: made in house; host or cells: Baculovirus insect cell expression system
Assay: Histone deacetylase inhibition, recombinant human HDAC-1
Type: biochemical
Experimental: The reaction was stopped by adding acetic acid (0.04 M, final concentration) and HCl (250 mM, final concentration). The mixture was extracted with ethyl acetate and the released [^3H]-acetic acid was quantified by scintillation counting. For inhibition studies, the enzyme was preincubated with compounds at 4° C. for 30 minutes prior to initiation of the enzymatic assay. IC50 values for HDAC enzyme inhibitors were determined by performing dose response curves with individual compounds and determining the concentration of inhibitor producing fifty percent of the maximal inhibition.

[1] = cloned recombinant human HDAC-1, Baculovirus insect cell expression, read-out: rHDAC-1 IC50

T1 sequence (Q13547 whole entry): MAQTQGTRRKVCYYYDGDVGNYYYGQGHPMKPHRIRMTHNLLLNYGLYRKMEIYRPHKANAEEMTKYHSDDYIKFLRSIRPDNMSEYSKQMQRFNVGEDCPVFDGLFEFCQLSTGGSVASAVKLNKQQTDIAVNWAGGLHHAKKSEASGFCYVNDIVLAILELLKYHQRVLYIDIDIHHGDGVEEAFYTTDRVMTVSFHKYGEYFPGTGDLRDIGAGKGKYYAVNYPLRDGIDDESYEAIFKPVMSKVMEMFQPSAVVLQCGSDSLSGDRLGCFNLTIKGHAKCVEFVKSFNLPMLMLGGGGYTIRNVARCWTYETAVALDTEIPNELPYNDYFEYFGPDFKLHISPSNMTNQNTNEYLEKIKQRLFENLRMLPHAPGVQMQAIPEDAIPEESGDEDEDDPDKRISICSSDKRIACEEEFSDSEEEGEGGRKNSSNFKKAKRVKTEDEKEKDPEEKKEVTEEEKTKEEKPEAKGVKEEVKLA

Compound | IC50 [1] | IC50
O=C(CCCCCCC(=O)c1ccc(-c2ccccc2)cc1)Nc1n[nH]c(=S)s1 [Compound 79, N-(4,5-Dihydro-5-thioxo-1,3,4-thiadiazol-2-yl)-7-[(4-biphenyl)carbonyl]-heptanamide] | 9 µM | –
COc1ccc(N)c(NC(=O)CCCCCCC(=O)c2ccc(-c3ccccc3)cc2)c1 [Compound 83, N-(3-(4-Amino)anisole)-7-[(4-biphenyl)carbonyl]heptanamide] | 25 µM | –
O=C(CCCCCCC(=O)c1ccccc1)Nc1ccccc1O [Compound 86, N-(2-Hydroxyphenyl)-7-(benzoyl)heptanamide] | 5 µM | –
O=C(CCCCCCC(=O)c1cc2ccccc2[nH]1)NO [Compound 100, N-Hydroxy-7-[2-(indolyl)carbonyl]heptanamide] | 4 µM | –
O=C(CCCCCC(=O)c1ccc(-c2ccccc2)cc1)Nc1n[nH]c(=S)s1 [Compound 128, N-(4,5-Dihydro-5-thioxo-1,3,4-thiadiazol-2-yl)-6-[(4-biphenyl)carbonyl]hexanamide] | 19 µM | –
Nc1ccccc1NC(=O)CCCCCCC(=O)c1ccc(-c2ccc(CN3CCOCC3)cc2)cc1 [Compound 157, N-(2-Aminophenyl)-7-[4-(4-(N-methylmorpholinyl)phenyl)benzoyl]heptanamide] | 4 µM | –
C/C(=C/C(=O)Nc1ccccc1N)CCCCC(=O)c1ccc2ccccc2c1 [Compound 194, (Z)-N-(2-Aminophenyl)-3-methyl-7-(2-naphthoyl)-2-heptenamide] | 24 µM | –
CC(CCCCC(=O)c1ccc2ccccc2c1)CC(=O)Nc1ccccc1N (centres unmarked) [Compound 198, (Z)-N-(2-Aminophenyl)-3-methyl-7-(2-naphthoyl)heptanamide] | 16 µM | –
CN(CCCCCC(=O)Nc1ccccc1N)Cc1ccc2ccccc2c1 [Compound 210, N-(2-Aminophenyl)-N-(2-naphthylmethyl-methylamino)hexanamide] | 10 µM | –
CC(C)(C)OC(=O)N(CCCCCC(=O)NO)Cc1ccc2ccccc2c1 [Compound 222, N-Hydroxy-6-N-(tert-butoxycarbonyl-2-naphthylmethylamino)hexanamide] | 0.1 µM | –
O=C(CCCCCNCc1ccc2ccccc2c1)NO [Compound 223, N-Hydroxy-6-N-(2-naphthylmethylamino)hexanamide trifluoroacetate] | – | 2 µM
CC(C)(C)OC(=O)N(CCCCCC(=O)Nc1ccccc1N)Cc1ccc2ccccc2c1 [Compound 224, N-(2-Aminophenyl)-6-N-(tert-butoxycarbonyl-2-naphthylmethylamino)-hexanamide] | 3 µM | –
Nc1ccccc1NC(=O)CCCCS(=O)(=O)CC(=O)c1ccc2ccccc2c1 [Compound 230a, N-(2-Aminophenyl)-5-(2-naphthoylmethylsulfonyl)pentanamide] | 5 µM | –
Nc1ccccc1NC(=O)CCCCS(=O)(=O)CC(=O)c1ccc(-c2ccccc2)cc1 [Compound 230b, N-(2-Aminophenyl)-5-(4-biphenylcarbonylmethylsulfonyl)pentanamide] | 12 µM | –
Nc1ccccc1NC(=O)CCCCN1C(=O)c2ccccc2C1=O [Compound 243b, N-(2-Aminophenyl)-5-(N-phthaloyl)pentanamide] | 99 µM | –
Nc1ccccc1NC(=O)CCCCCCN1C(=O)c2ccccc2C1=O [Compound 243c, N-(2-Aminophenyl)-7-(N-phthaloyl)heptanamide] | 4 µM | –
Nc1ccccc1NC(=O)CCCCCN1C(=O)c2ccc([N+](=O)[O-])cc2C1=O [Compound 243e, N-(2-Aminophenyl)-6-(5-nitro-N-phthaloyl)hexanamide] | 12 µM | –
Nc1ccccc1NC(=O)CCCCCN1C(=O)c2cccnc2C1=O [Compound 246a] | 5 µM | –
Nc1ccccc1NC(=O)CCCCCN1C(=O)c2ccncc2C1=O [Compound 246b] | 14 µM | –
Nc1ccccc1NC(=O)CCCCCN1Cc2ccccc2C1=O [Compound 248, N-(2-Aminophenyl)-6-[2-(1-oxo-1,3-dihydro-isoindolyl)]hexanamide] | 4 µM | –

More lines, in order of falling IC50 [1], values ahead:

IC50 [1] | Compound | IC50
3 µM | Nc1ccccc1NC(=O)CCCCCCCC(=O)c1ccc(-c2ccccc2)cc1 [Compound 130, N-(2-Aminophenyl)-8[(4-biphenyl)carbonyl]octanamide] | –
3 µM | CN(CCCCC(=O)NO)Cc1ccc2ccccc2c1 [Compound 213, N-Hydroxy-5-N-(2-naphthylmethyl-methylamino)pentanamide] | –
3 µM | Nc1ccccc1NC(=O)CCCCSCC(=O)c1ccc2ccccc2c1 [Compound 227a, N-(2-Aminophenyl)-5-(2-naphthoylmethylsulfanyl)pentanamide] | –
3 µM | Nc1ccccc1NC(=O)CCCCSCC(=O)c1ccc(-c2ccccc2)cc1 [Compound 227b, N-(2-Aminophenyl)-5-(4-biphenylcarbonylmethanesulfanyl)pentanamide] | –
3 µM | Nc1ccccc1NC(=O)CCCCCN1C(=O)c2cc(Cl)c(Cl)cc2C1=O [Compound 243f, N-(2-Aminophenyl)-6-(5,6-dichloro-N-phthaloyl)hexanamide] | –
3 µM | Nc1ccccc1NC(=O)CCCCCN1C(=O)c2ccc(O)cc2C1=O [Compound 243g, N-(2-Aminophenyl)-6-(5-hydroxy-N-phthaloyl)hexanamide] | –
3 µM | Nc1ccccc1NC(=O)CCCCCN1C(=O)c2cc(O)c(CN3CCCCC3)cc2C1=O [Compound 243h, N-(2-Aminophenyl)-6-(5-hydroxy-6-(1-methylpiperidinyl)-N-phthaloyl)-hexanamide] | –
2 µM | CON=C(CCCCCCC(=O)Nc1ccccc1N)c1cccc(-c2ccccc2)c1 (mixture of isomers) [Compound 135, N-(2-Aminophenyl)-8-(E)-O-methyl-oximino-8-(3-biphenyl)octanamide] | –
1 µM | Nc1ccccc1NC(=O)CCCCCC(=O)c1ccc(-c2ccccc2)cc1 [Compound 129, N-(2-Aminophenyl)-6-[(biphenyl)carbonyl]hexanamide] | –
1 µM | Nc1ccccc1NC(=O)CCCCCCC(O)c1cccc(-c2ccccc2)c1 (centres unmarked) [Compound 133, N-(2-Aminophenyl)-8-(3-biphenyl)-8-hydroxy-octanamide] | –
1 µM | O=C(CCCCS(=O)(=O)CC(=O)c1ccc2ccccc2c1)NO [Compound 229a, N-Hydroxy-5-(2-naphthoylmethylsulfonyl)pentanamide] | –
1 µM | Nc1ccccc1NC(=O)CCCCCCOc1ccc(-c2ccccc2)cc1 [Compound 234, N-(2-Aminophenyl)-7-(4-biphenyloxy)heptanamide] | –
1 µM | Nc1ccccc1NC(=O)CCCCCN1C(=O)c2cccc3c(Br)ccc(c23)C1=O [Compound 251b, N-(2-Aminophenyl)-6-[2-(6-bromo-1,3-dioxo-1H,3H-benzo[de]isoquinolinyl)]-hexanamide] | –
0.8 µM | Nc1ccccc1NC(=O)CCCCCCC(=O)c1cccc(-c2ccccc2)c1 [Compound 132, N-(2-Aminophenyl)-7-[(3-biphenyl)carbonyl]heptanamide] | –
0.6 µM | Nc1ccccc1NC(=O)CCCCCCC(=O)c1ccccc1 [Compound 53a, N-(2-Aminophenyl)-7-benzoylheptanamide] | –
0.3 µM | CN(CCCCC(=O)NO)CCc1ccc2ccccc2c1 [Compound 216, N-Hydroxy-5-N-[2-(2-naphthylethyl)-methylamino]pentanamide] | –
0.1 µM | O=C(CCCCCN(Cc1ccccc1)Cc1ccc2ccccc2c1)NO [Compound 220b, N-Hydroxy-6-N-(Benzyl-2-naphthylmethylamino)hexanamide] | –
0.05 µM | COc1ccc(-c2ccc(C(=O)CCCCCCC(=O)NO)cn2)cc1OC [Compound 150, N-Hydroxy-7-[5-(2-(3,4-dimethoxyphenyl)pyridyl)carbonyl]heptanamide] | –
0.05 µM | CN(CCCCCC(=O)NO)Cc1ccc2ccccc2c1 [Compound 209, N-Hydroxy-N-(2-naphthylmethyl-methylamino)hexanamide] | –
0.04 µM | O=C(CCCCS(=O)(=O)CC(=O)c1ccc(-c2ccccc2)cc1)NO [Compound 229b, N-Hydroxy-5-(4-biphenylcarbonylmethylsulfonyl)pentanamide] | –
0.03 µM | CC(C)(C)OC(=O)N1CCN(c2ccc(C(=O)CCCCCCC(=O)NO)cc2)CC1 [Compound 138c1, N-Hydroxy-7-[4-(1-(4-tert-butyloxycarbonylpiperazinyl))benzoyl]heptanamide] | –
0.03 µM | O=C(CCCCCCC(=O)c1ccc(N2CCNCC2)cc1)NO [Compound 138c2] | –
0.02 µM | O=C(CCCCCCC(=O)c1ccc(NCc2cccnc2)cc1)NO [Compound 138f, N-Hydroxy-7-[4(N-3-aminomethylpyridyl)benzoyl]heptanamide] | –
0.02 µM | O=C(CCCCCN(Cc1ccc2ccccc2c1)C(=O)OCc1ccccc1)NO [Compound 220a, N-Hydroxy-6-N-(Benzyloxycarbonyl-2-naphthylmethylamino)hexanamide] | –
0.008 µM | O=C(CCCCCCC(=O)c1cccc(-c2ccccc2)c1)NO [Compound 131, N-Hydroxy-7-[(3-biphenyl)carbonyl]heptanamide] | –
0.007 µM | O=C(CCCCSCC(=O)c1ccc2ccccc2c1)NO [Compound 226a, N-Hydroxy-5-(2-naphthoylmethylsulfanyl)pentanamide] | –
0.006 µM | O=C(CCCCSCC(=O)c1ccc(-c2ccccc2)cc1)NO [Compound 226b, N-Hydroxy-5-(4-biphenylcarbonylmethanesulfanyl)pentanamide] | –
